Reference: paper PMC8205030, “Methoxy and bromo scans on N-(5-methoxyphenyl) methoxybenzenesulphonamides reveal potent cytotoxic compounds, especially against the human breast adenocarcinoma MCF7 cell line” (Journal of Enzyme Inhibition and Medicinal Chemistry, 2021)
Like-named read-outs stand apart in the source and are kept apart here.

Assays:
[1] = system: microtubule network of HeLa cells; experiment: Immunofluorescence of microtubule network, HeLa; type: cell-based, human; conditions: 175 nM, 72 h, confocal microscopy
Procedure: MCF7, HeLa, and HT-29 cells were grown on round glass coverslips coated with poly-L-lysine (12 mm diameter). To reach appropriate cell confluence, coverslips were manipulated in 6-well plates (3 coverslips/well) seeding 3 ml/well of cells in the exponential growth phase at 2 × 10^4 cells/mL. After 24 h incubation, cells were treated with compound 25 at 175 nM and incubated for 72 h. Cells were washed with PBS, fixed with 4% formaldehyde in PBS for 10 min, permeabilized with 0.5% Triton X-100 (Boehringer Mannheim, Ingelheimam Rhein, Germany) in PBS for 10 min, and blocked with 10% BSA in PBS for 30 min. Then, coverslips were incubated with anti-α-tubulin mouse monoclonal antibody (diluted 1:200 in 3% BSA/PBS) (Sigma-Aldrich Co.) and anti-SQSTM1/p62 rabbit monoclonal antibody (diluted 1:100 in 3% BSA/PBS) (Abcam) for 1 h 30 min. After PBS washing, coverslips were incubated with fluorescent secondary antibodies Alexa Fluor 488 goat anti-mouse IgG and Alexa Fluor 594 anti-rabbit (both diluted 1:400 in 1% BSA/PBS) (Molecular Probes, Invitrogen, Thermo Fischer Scientific) for 1 h in darkness. […] Cells were analysed by confocal microscopy using a LEICA SP5 microscope DMI-6000V model coupled to a LEICA LAS AF software computer.

[2] = system: HT-29 (human colon carcinoma) cells; experiment: Cell growth assay (XTT), HT-29, alone or with verapamil; type: cell-based

With `COc1ccc(S(=O)(=O)N(CC#N)c2cc(OC)c(Br)cc2OC)cc1` [Compound 25, N-(4-bromo-2,5-dimethoxyphenyl)-N-(cyanomethyl)-4-methoxybenzenesulphonamide] the “Effect on microtubule network” value [1] was “disrupted the microtubule network”, the IC50 ([2]; 72 h, in the presence of Pgp/MDR1 inhibitor verapamil (10 µM), read-out: Antiproliferative activity IC50 HT-29 Verap) was 85 nM and the IC50 ([2]; Homo sapiens, HT-29, 72 h drug exposure, XTT, read-out: Antiproliferative activity IC50 HT-29) was 97 nM.
